# What was measured:
# Type in all cases: cell-based
# [1] = MTT cytotoxicity evaluation on MCF-7 cells; details: human, range 0~100 μM
# Method: (§1) Cells were incubated at 37 °C in an incubator with 5% CO2. Cell viability was determined using the MTT assay. Briefly, MCF-7 cell lines were seeded at 5000–8000 cells/well in 96-well plates. […] Following a continuous 24 h of incubation, the culture medium was replaced by 90 μL fresh culture medium, and 10 μL MTT solution was added.
# R. solani = assay: microbe, parasite or virus in culture; details: Rhizoctonia solani, read-out: The Inhibition Rate (%) R. solani
# F. graminearum = assay: microbe, parasite or virus in culture; details: Fusarium graminearum; for inhibition at 50 µg/mL: read-out: The Inhibition Rate (%) F. graminearum
# E. turcicum = assay: Mycelial growth inhibition test in vitro (E. turcicum); details: Exserohilum turcicum; 50 μg/mL, mean ± SD of three replicates; read-out: The Inhibition Rate (%) E. turcicum
# B. cinerea = assay: Mycelial growth inhibition test in vitro (B. cinerea); details: Botrytis cinerea; 50 μg/mL, mean ± SD of three replicates; read-out: The Inhibition Rate (%) B. cinerea
# Method: (§2) The antifungal activity of the target compound was tested by the mycelial growth inhibition rate method. The compounds were detected at a concentration of 50 μg/mL, and carbendazim was used as the positive control. The antifungal activity was carried out according to literature reports. After drilling the mycelium (3 mm), it was inoculated into the PDA medium containing compounds, and the Petri dish was put into the incubator at 25 °C for 12-48 h; then, the colony diameter was measured with 50 index vernier caliper by the cross method, and the data were recorded. […] • A: The average diameter of the blank medium colony. • B: Diameter of mushroom cake (3 mm). • C: The average diameter of the colonies in the medium containing compound.
# C. capsica = assay: Mycelial growth inhibition test in vitro (C. capsica); details: Colletotrichum; 50 μg/mL, mean ± SD of three replicates; read-out: The Inhibition Rate (%) C. capsica
# Method: as §2, with “compound. […] The PDA medium containing different concentrations of the compound was prepared by the two-fold dilution method, the final concentration of the compound in the medium was adjusted to 0-100.00 μg/mL, and three parallel samples were set for each concentration. […] The toxicity regression equation of the tested compound was obtained, taking the logarithm of compound concentration (lgc) as the independent variable (x) and the probability value of inhibition rate as the dependent variable (y), and the EC50 value of each tested compound was calculated.” for “compound.”
# MCF-7 cell line = assay: MTT cytotoxicity evaluation on MCF-7 cells; details: 100 μM, 24 h
# Method: as §1
Structure (SMILES),IC50 at 24 h [1] [µM],inhibition at 50 µg/mL (R. solani) [%],inhibition at 50 µg/mL (F. graminearum) [%],inhibition at 50 µg/mL (E. turcicum) [%],inhibition at 50 µg/mL (B. cinerea) [%],inhibition at 50 µg/mL (C. capsica) [%],cell survival rate of MCF-7 cells (MCF-7 cell line),EC50 (F. graminearum; read-out: EC50 (μg/mL) F. graminearum) [µg/mL]
"Oc1cc(O)cc(-c2nc(-c3ccccc3)no2)c1 [Compound 4e, 5-(3-Phenyl-1,2,4-oxadiazol-5-yl) benzene-1,3-diol]",≥ 100,16.6 ± 1.47,30.1 ± 4.51,26.5 ± 3.09,< 10,18.8 ± 3.1,–,–
"COc1ccc(-c2noc(-c3cccc(O)c3)n2)cc1OC [Compound 4o, 3-(3-(3,4-Dimethoxyphenyl)-1,2,4-oxadiazol-5-yl)phenol]",–,24.4 ± 1.65,55.1 ± 2.99,28.1 ± 1.65,< 10,20.8 ± 0.59,–,–
"Clc1ccc(-c2nc(-c3ccccc3)no2)cc1 [Compound 4a, 5-(4-Chlorophenyl)-3-phenyl-1,2,4-oxadiazole]",–,< 10,19.1 ± 7.15,17.5 ± 2.68,< 10,–,–,–
"COc1ccc(-c2nc(-c3ccc(OC)c(OC)c3)no2)cc1 [Compound 4w, 3-(3,4-Dimethoxyphenyl)-5-(4-methoxyphenyl)-1,2,4-oxadiazole]",–,< 10,< 10,< 10,< 10,< 10,–,–
"COc1ccc(-c2nc(-c3cc(OC)c(OC)c(OC)c3)no2)cc1OC [Compound 4t, 5-(3,4-Dimethoxyphenyl)-3-(3,4,5-trimethoxyphenyl)-1,2,4-oxadiazole]",–,< 10,28.3 ± 2.19,< 10,< 10,–,significant cell proliferation,–
"COc1ccc(-c2noc(-c3ccc(Cl)cc3)n2)cc1OC [Compound 4m, 5-(4-Chlorophenyl)-3-(3,4-dimethoxyphenyl)-1,2,4-oxadiazole]",–,11.7 ± 5.11,< 10,15.2 ± 0.77,–,–,–,–
"COc1ccc(-c2nc(-c3ccccc3)no2)cc1OC [Compound 4b, 5-(3,4-Dimethoxyphenyl)-3-phenyl-1,2,4-oxadiazole]",–,18.7 ± 5.82,23.8 ± 7.22,60.4 ± 1.68,< 10,< 10,–,–
"Clc1ccc(/C=C/c2nc(-c3ccccc3)no2)cc1 [Compound 5c, (E)-5-(4-Chlorostyryl)-3-phenyl-1,2,4-oxadiazole]",–,< 10,< 10,< 10,< 10,–,significant cell proliferation,–
"COc1ccc(-c2noc(-c3ccc(OC)c(OC)c3)n2)cc1 [Compound 4k, 5-(3,4-Dimethoxyphenyl)-3-(4-methoxyphenyl)-1,2,4-oxadiazole]",–,22.6 ± 8.85,21.7 ± 2.53,< 10,< 10,< 10,–,–
"COc1ccc(-c2noc(-c3ccc(C(C)(C)C)cc3)n2)cc1 [Compound 4l, 5-(4-(tert-Butyl)phenyl)-3-(4-methoxyphenyl)-1,2,4-oxadiazole]",–,< 10,27.6 ± 1.78,24.2 ± 3.77,< 10,< 10,significant cell proliferation,–
"O=[N+]([O-])c1ccc(-c2nc(-c3ccccc3)no2)cc1 [Compound 4i, 5-(4-Nitrophenyl)-3-phenyl-1,2,4-oxadiazole]",–,< 10,< 10,< 10,< 10,–,significant cell proliferation,–
"COc1cc(-c2noc(-c3ccc(C(C)(C)C)cc3)n2)cc(OC)c1OC [Compound 4u, 5-(4-(tert-Butyl)phenyl)-3-(3,4,5-trimethoxyphenyl)-1,2,4-oxadiazole]",≥ 100,< 10,< 10,< 10,< 10,< 10,–,–
"COc1cc(-c2noc(-c3cccc(O)c3)n2)cc(OC)c1OC [Compound 4v, 3-(3-(3,4,5-Trimethoxyphenyl)-1,2,4-oxadiazol-5-yl) phenol]",–,< 10,26.1 ± 9.47,15.5 ± 3.53,< 10,< 10,–,–
"COc1ccc(-c2noc(-c3cc(O)cc(O)c3)n2)cc1OC [Compound 4p, 5-(3-(3,4-Dimethoxyphenyl)-1,2,4-oxadiazol-5-yl)benzene-1,3-diol]",–,< 10,< 10,11.2 ± 1.91,< 10,0,significant cell proliferation,–
"Oc1cccc(-c2nc(-c3ccccc3)no2)c1 [Compound 4d, 3-(3-Phenyl-1,2,4-oxadiazol-5-yl) phenol]",≥ 100,18.6 ± 2.71,40.2 ± 1.5,46.1 ± 0.74,36.8 ± 9.53,22.3 ± 2.97,–,–
"CC(C)(C)c1ccc(-c2nc(-c3ccccc3)no2)cc1 [Compound 4c, 5-(4-(tert-Butyl)phenyl)-3-phenyl-1,2,4-oxadiazole]",–,10.7 ± 3.54,33.5 ± 3.88,30.1 ± 1.95,< 10,< 10,–,–
"COc1ccc(-c2noc(/C=C/c3ccccc3)n2)cc1 [Compound 5d, (E)-3-(4-Methoxyphenyl)-5-styryl-1,2,4-oxadiazole]",–,< 10,19 ± 7.4,19.2 ± 2.39,21.7 ± 6.82,–,–,–
"C(=C\c1nc(-c2ccccc2)no1)/c1ccccc1 [Compound 5a, (E)-3-Phenyl-5-styryl-1,2,4-oxadiazole]",–,14.5 ± 6.32,< 10,21.1 ± 3.85,< 10,–,–,–
"COc1cc(-c2noc(-c3ccc(Cl)cc3)n2)cc(OC)c1OC [Compound 4s, 5-(4-Chlorophenyl)-3-(3,4,5-trimethoxyphenyl)-1,2,4-oxadiazole]",–,< 10,< 10,< 10,< 10,< 10,–,–
"Oc1cc(-c2nc(-c3ccccc3)no2)cc(O)c1O [Compound 4g, 5-(3-Phenyl-1,2,4-oxadiazol-5-yl) benzene-1,2,3-triol]",–,39.9 ± 3.44,56.9 ± 6.74,38.7 ± 1,< 10,47.6 ± 1.05,–,80.5
"COc1ccc(-c2noc(-c3ccc(C(C)(C)C)cc3)n2)cc1OC [Compound 4n, 5-(4-(tert-Butyl)phenyl)-3-(3,4-dimethoxyphenyl)-1,2,4-oxadiazole]",≥ 100,< 10,< 10,29.8 ± 1.26,< 10,< 10,–,–
"FC(F)(F)c1ccc(-c2nc(-c3ccccc3)no2)cc1 [Compound 4h, 3-Phenyl-5-(4-(trifluoromethyl)phenyl)-1,2,4-oxadiazole]",–,< 10,29 ± 8.54,< 10,< 10,< 10,–,–
"COc1cc(/C=C/c2nc(-c3ccccc3)no2)cc(OC)c1OC [Compound 5b, (E)-3-Phenyl-5-(3,4,5-trimethoxystyryl)-1,2,4-oxadiazole]",≥ 100,21.2 ± 2.78,36.1 ± 1.67,31.8 ± 1.44,30.2 ± 6.4,20.6 ± 4.48,–,–
"COc1ccc(-c2noc(-c3ccc(Cl)cc3)n2)cc1 [Compound 4j, 5-(4-Chlorophenyl)-3-(4-methoxyphenyl)-1,2,4-oxadiazole]",–,< 10,< 10,< 10,< 10,< 10,–,–
